Assays:
[1] = tested on: MiaPaCa-2 cells; assay: MTT assay of MiaPaCa2 cultures, single 50 μM dose; format: cell-based, human; design: rel amt (relative value set to the control): unit not given here; conditions: MiaPaCa2, 50 μM; for MTT assay result, av-blank: average minus blank; for MTT assay result, av: average of 7 runs
Description: MiaPaCa-2, BxPc-3, and HPDE6-C7 cells were cultured as described above, and treated with a single 50 μM dose of vehicle (ethanol extracted olive oil), T3 alpha (alpha tocotrienol), T3 beta (beta tocotrienol), T3 gamma (gamma tocotrienol), T3 delta (delta tocotrienol), T alpha (alpha tocopherol), T beta (beta tocopherol), TS (tocopherol succinate), GG (geranylgeraniol), SA (succinic acid). A control culture (vehicle only with no treatment) was grown alongside the treatments for comparison. Cell viability was measured using MTT assay at preselect times of 48 or 120 hours after treatment.

[2] = tested on: human pancreatic ductal epithelial cells transformed with oncogenic K-ras (HPDE-K-ras); assay: Proliferation (MTT) of K-ras transformed ductal epithelial cells; format: cell-based; conditions: 72 hours
Description: FIGS. 36A and B are graphs showing the effect of tocotrienols on Human Pancreatic Ductal Epithelial Kras Transformed cells (MTT). (A) Tocotrienols (10-100 μM) had no effect on the proliferation of normal immortalized human pancreatic ductal epithelial cells at 72 hours. […] Points, means; bars, SE (n=3). *p<0.001 vs. vehicle. # p<0.02 vs. vehicle
The Ras effector pathways Raf-MEK-ERK and PI3 kinase-AKT are important for cell proliferation and survival, respectively. Pancreatic cancer cell lines (MIA PaCa2, SW1990, BXPC3) and HPDE 6C7 cells were treated with 8-tocotrienol (20 μM) and cell lysates were collected and prepared at progressive time intervals as described above. Proteins from lysates were run by SDS PAGE and immunoblotted with the following antibodies: Ras, p-cRaf (ser 338), p-MEK1/2, MEK1/2, pERK 44/42, ERK 44/42 (Cell Signaling) and c-Raf (BD Transduction Laboratories). […] The MIA PaCa2 and SW1990 cells were then tested for AKT inhibition. The cells were treated with δ-tocotrienol (20 μM) for 24 and 48 hours and cell lysates were run by SDS-PAGE and immunoblotted for p-AKT and AKT (Cell Signaling). […] Taken together, the inhibition of downstream effectors of oncogenic Ras signaling by δ-tocotrienol without an effect on Ras protein levels may indicate a negative regulatory role of 8-tocotrienol on the function of oncogenic Ras. The pancreatic ductal epithelial cell proliferative inhibition by δ-tocotrienol was tested to see if it occurs through blocking aberrant signal transduction cascades. Immortalized human pancreatic ductal epithelial cells (HPDE) and human pancreatic ductal epithelial cells that were transformed by stable transfection of a mutated K-ras oncogene (HPDE-K-ras) were used to test the. effect of tocotrienols on the proliferation of HPDE and HPDE-K-ras.

[3] = tested on: MiaPaCa2 pancreatic cancer cells; assay: Cell death by trypan blue assay, 72 hours; format: cell-based, human; conditions: MiaPaCa2, 50 μM
Description: (§1) FIGS. 38A and B are graphs showing the effect of tocotrienols on pancreatic cancer survival (Trypan Blue and Cell death ELISA). […] T3=tocotrienol, T=tocopherol, vit E=vitamin E succinate, gem=gemcitabine, 5-FU=fluorouracil.
(§2) MIA PaCa2 cells (3×10^3) were plated in 96 well plates and treated the following day with different compositions of tocoperhol, tocotrienol, gemcitabine, or fluorouracil. The cells were harvested 72 hours later and tested using trypan blue assay and cell death ELISA.

[4] = tested on: MiaPaCa2 pancreatic cancer cells; assay: Malignant transformation (Soft Agar) colony formation; format: cell-based, human; conditions: MiaPaCa2, 50 μM, vs vehicle
Description: FIG. 20 is a graph showing the effect of tocotrienols on pancreatic cancer malignant transformation (Soft Agar). […] Bars, SE (n=3). *p<0.001 vs. vehicle. **p<0.02 vs. vehicle. ***p<0.05 vs. vehicle. T=tocopherol, T3=tocotrienol.
MiaPaCa2 cells (3×10^3) were cultured as described in the Examples above, in 96-well plates and treated with 50 μM of different tocopherol or tocotrienol.

[5] = tested on: MiaPaCa2 pancreatic cancer cells; assay: Apoptosis by cell death ELISA, 72 hours; format: cell-based, human; conditions: MiaPaCa2, 50 μM
Description: as §1, §2

[6] = tested on: AsPc1 pancreatic cancer cells; assay: Effect of tocotrienols on pancreatic cancer proliferation (MTT), 72 hours; format: cell-based, human; conditions: AsPc1, 40 to 100 μM, vs vehicle
From the text: (§3) FIGS. 11A and B are graphs showing the effect of tocotrienols on pancreatic cancer proliferation (MTT). […] Points, means; bars, SE (n=3).

[7] = tested on: MiaPaCa2 pancreatic cancer cells; assay: as above; format: cell-based, human; conditions: MiaPaCa2, 40 to 100 μM, vs vehicle
From the text: as §3

Row | SMILES | rel amt (relative value set to the control) ([1]; 48 hours) | MTT assay result, av-blank ([1]; 48 hours) | MTT assay result, av ([1]; 48 hours) | MTT assay result, run 1 ([1]; 48 hours) | MTT assay result, run 2 ([1]; 48 hours) | MTT assay result, run 3 ([1]; 48 hours) | MTT assay result, run 4 ([1]; 48 hours) | MTT assay result, run 5 ([1]; 48 hours) | MTT assay result, run 6 ([1]; 48 hours) | MTT assay result, run 7 ([1]; 48 hours) | rel amt (relative value set to the control) ([1]; 120 hours (5 days)) | MTT assay result, av-blank ([1]; 120 hours (5 days)) | MTT assay result, av ([1]; 120 hours (5 days)) | MTT assay result, run 1 ([1]; 120 hours (5 days)) | MTT assay result, run 2 ([1]; 120 hours (5 days)) | MTT assay result, run 3 ([1]; 120 hours (5 days)) | MTT assay result, run 4 ([1]; 120 hours (5 days)) | MTT assay result, run 5 ([1]; 120 hours (5 days)) | MTT assay result, run 6 ([1]; 120 hours (5 days)) | MTT assay result, run 7 ([1]; 120 hours (5 days)) | other results
1 | CC(C)=CCC/C(C)=C/CC/C(C)=C/CC/C(C)=C/CO [GG, geranylgeraniol] | 92 | 0.285 | 0.331 | 0.329 | 0.339 | 0.321 | 0.328 | 0.342 | 0.317 | 0.341 | 93 | 1.679 | 1.731 | 1.738 | 1.608 | 1.577 | 1.744 | 2.134 | 1.606 | 1.711 | –
2 | O=C(O)CCC(=O)O [SA, succinic acid] | 74 | 0.228 | 0.274 | 0.276 | 0.269 | 0.268 | 0.276 | 0.3 | 0.262 | 0.266 | 80 | 1.443 | 1.495 | 1.36 | 1.346 | 1.488 | 1.609 | 1.84 | 1.412 | 1.408 | –
3 | CC(C)=CCC/C(C)=C/CC/C(C)=C/CC[C@]1(C)CCc2c(C)c(O)cc(C)c2O1 [T3 beta, beta tocotrienol] | 62 | 0.193 | 0.239 | 0.272 | 0.235 | 0.233 | 0.226 | 0.252 | 0.219 | 0.239 | 53 | 0.966 | 1.018 | 0.97 | 0.781 | 0.977 | 1.154 | 1.408 | 0.944 | 0.891 | proliferation (MTT) [2]: significantly inhibited
4 | CC(C)=CCC/C(C)=C/CC/C(C)=C/CC[C@]1(C)CCc2cc(O)c(C)c(C)c2O1 [T3 gamma, gamma tocotrienol] | 40 | 0.124 | 0.170 | 0.185 | 0.181 | 0.156 | 0.183 | 0.21 | 0.141 | 0.137 | 2 | 0.042 | 0.094 | 0.088 | 0.084 | 0.098 | 0.089 | 0.12 | 0.084 | 0.092 | proliferation (MTT) [2]: significantly inhibited
5 | Cc1c(C)c2c(c(C)c1O)CC[C@@](C)(CCC[C@H](C)CCC[C@H](C)CCCC(C)C)O2 [T alpha, alpha tocopherol] | 95 | 0.296 | 0.342 | 0.365 | 0.352 | 0.339 | 0.338 | 0.35 | 0.297 | 0.35 | 89 | 1.604 | 1.656 | 1.56 | 1.647 | 1.59 | 1.619 | 2.059 | 1.526 | 1.588 | cell death (Trypan Blue) [3]: no effect; malignant transformation (Soft Agar) [4]: no effect; apoptosis (Cell death ELISA) [5]: no effect; proliferation (MTT) [6]: no effect; proliferation (MTT) [7]: no effect
6 | Cc1c(O)cc2c(c1C)O[C@](C)(CCC[C@H](C)CCC[C@H](C)CCCC(C)C)CC2 [T gamma] | 94 | 0.292 | 0.338 | 0.35 | 0.323 | 0.312 | 0.36 | 0.348 | 0.328 | 0.348 | 87 | 1.566 | 1.618 | 1.52 | 1.516 | 1.547 | 1.625 | 1.917 | 1.568 | 1.635 | –
7 | Cc1c(C)c2c(c(C)c1OC(=O)CCC(=O)O)CC[C@@](C)(CCC[C@H](C)CCC[C@H](C)CCCC(C)C)O2 [TS, tocopherol succinate] | 48 | 0.148 | 0.194 | 0.215 | 0.184 | 0.2 | 0.187 | 0.194 | 0.19 | 0.185 | 43 | 0.773 | 0.825 | 0.732 | 0.776 | 0.786 | 0.714 | 0.939 | 0.859 | 0.968 | –
